pIC50: −log10 of the molar value.
Legend:
LAT1 = molecular target: T1, LAT1 (Homo sapiens, UniProt Q01650); assay: LAT1 inhibiting activity: inhibition of 14C-L-leucine uptake in T24 cells; assay type: cell-based; conditions: 1 μM 14C-Leu, 1-minute uptake
T1 construct: Using human bladder cancer cell strain T24 cells, in which LAT1 only was strongly expressed; endogenous in cells; host or cells: T24 human bladder cancer cells
Experimental: 1) To each of the weighed test compounds, DMSO was added to prepare a 100 mM solution or suspension as a DMSO stock. In an assay, the stock was diluted 1,000 fold with a buffer described below. The final concentration of the test compound was 100 μM and the final concentration of DMSO was 0.1%.
2) The LAT1 inhibiting activity of the test compound was determined in the following manner. Using human bladder cancer cell strain T24 cells, in which LAT1 only was strongly expressed, inhibiting activity of each test compound against “^14C”-L-leucine uptake was determined as the LAT1 inhibiting activity.
T24 cells in a logarithmic growth-phase were transferred to a 24-well plate at 0.8×10^5 cell/well and cultured at 37° C. for 2 days. After the plate was incubated at 37° C. on a water bath for 5 minutes, the fixed cells were washed three times with a Hank's balanced salt solution (HBSS: 25 mM HEPES, 125 mM choline chloride, 5.6 mM glucose, 4.8 mM KCl, 1.2 mM MgSO4, 1.2 mM KH2PO4, 1.3 mM CaCl2, pH 7.4) warmed to 37° C., not containing Na^+, to which 500 μl of HBSS (37° C.) was added. Then, further incubation was carried out for 7 minutes.
After the incubation was finished, a supernatant was replaced with HBSS containing 1 μM ^14C-Leu and 100 μM test compound (37° C.), followed by 1-minute uptake. Then, the cells were washed three times with HBSS of 4° C. The washed cells were added with 500 μl of 0.1 N NaOH to dissolve the cells for 20 minutes. The cell solution was transferred to a vial, to which 3 ml of a scintillator was added to measure the radioactivity with a liquid scintillation counter.
Inhibition % was calculated by the following formula. Inhibition %=100−(radioactivity of the well added with the test compound)/(radioactivity of the well not added with the test compound)×100

[1] = Acute toxicity test, intravenous administration of mice (LD50); conditions: mouse, in vivo
Experimental: Further, with respect to the compounds of Examples 77-79 and Example 98, an acute toxicity test for intravenous administration of mice were carried out to obtain LD50.

sarcoma 180 cells = assay: Sarcoma 180 subcutaneous implant in mice, tumor weight; assay type: in vivo, ICR mice; conditions: 100 mg/kg intravenously for 7 days; tumor weight 10 days after implantation
Experimental: In an inguinal region of ICR mice, 1×10^6 sarcoma 180 cells were implanted subcutaneously. After 24 hours from the implantation, administration of the test compounds (Example 6-3) and Example 49-3)) was started, which was continued intravenously for 7 days. Each of the test compounds was dissolved in a physiologic saline containing 10% DMSO and 10% Tween 80 so that the amount of the test compound became 100 mg/kg, which was intravenously administered in an amount of 0.1 ml per 10 g of body weight. After 10 days from the implantation, tumor weight was measured and a proliferation inhibiting rate was calculated by the following formula to be compared with that of nontreated controls. Proliferation inhibiting rate (T/C)=[1−(average tumor weight of the group added with the test compound/average tumor weight of the control group)]×100

human LAT1 (hLAT1) [2] = molecular target: T2, human LAT1 (hLAT1) (Homo sapiens, UniProt Q01650); assay: Inhibition of leucine uptake into hLAT1 expressing Xenopus oocytes; assay type: cell-based; conditions: 10 μM 14C-Leu, 30 minutes uptake, oocytes with hLAT1 and h4F2hc cRNA
T2 construct: expressed in transfected cells; host or cells: Xenopus laevis oocytes injected with cRNA
Experimental: (§1) 1) First, human LAT1 (hereinafter referred to as hLAT1), human LAT2 (hereinafter referred to as hLAT2) and human 4F2hc (hereinafter referred to as h4F2hc) were linearized by restriction enzyme treatment. After ethanol precipitation, they were dissolved in a DEPC treatment solution to prepare a mold cDNA. Then, in vitro transcription reaction was carried out in the following manner.
(§2) Reaction composition (50 μl in total) • Mold cDNA 1.5 μg • RNasin RNase inhibitor (Promega) 100 U • rNTP (Amersham. Pharmacia) 10 mM each (rGTP was 1 mM) • DTT 30 mM • m7G(5′)ppp(5′)G (Amersham. Pharmacia) […] • RNA polymerase (Stratagene) 50 U • Transcription buffer
(§3) As the RNA polymerase for hLAT1, hLAT2 and h4F2hc, T3, SP6 and T7 were used, respectively.
(§4) After the above reagents were mixed, they were reacted at 37° C. for 10 minutes, added with 1 μL of 5 mM rGTP, and reacted again at 37° C. for 10 minutes. Further, 1 μL of 5 mM rGTP was added and the reaction was carried out again at 37° C. for 10 minutes. Then, RNase-free DNase (Stratagene) was added and mixed, followed by incubation at 37° C. for 20 minutes. The reaction solution was sequentially extracted with phenol/chloroform, and then with chloroform. Then, half amount of 7.5 M NH4OAc and 2.5-fold amount of cold ethanol were added to perform ethanol precipitation. After centrifugation at 15000 rpm for 30 minutes, the resulting precipitate was washed with cold 80% ethanol and dissolved in 100 μL of a DEPC treatment solution. Thereafter, ethanol precipitation was performed again. The precipitate obtained by centrifugation at 15000 rpm for 30 minutes was washed with cold 80% ethanol and dried for 20 minutes in a centrifugal concentrator. Then, it was dissolved in a DEPC treatment solution to 0.5 mg/mL to prepare a cRNA solution. Thus, cRNA was prepared by in vitro transcription reaction.
(§5) 2) Xenopus laevis was anesthetized by immersing into an anesthetic solution (0.2% MS-222, 0.3% KHCO3), and then cut open in the abdominal region on ice to take out an oocyte mass under the peritoneum. The extracted oocyte mass was shredded with tweezers, which was added to an OR2 culture medium (5 mM HEPES, 82.5 mM NaCl, 2 mM KCl, 1 mM MgCl2, pH 7.5) containing 2 mg/mL of collagenase, incubated at room temperature for about 30 minutes, washed with the OR2 culture medium and transferred into a Barth culture medium (10 mM HEPES, 88 mM NaCl, 1 mM KCl, 0.33 mM Ca(NO3)2, 0.41 mM CaCl2, 0.82 mM MgSO4, 2.4 mM NaHCO3, pH 7.4).
(§6) Then, a follicular cell layer covering the oocytes was peeled under a stereoscopic microscope to isolate the oocytes, to which 50 nL of a cRNA solution was added, respectively. As the cRNA, an equimolar mixture of hLAT1 cRNA and h4F2hc cRNA was injected into the oocytes for hLAT1 expression, and an equimolar mixture of hLAT2 cRNA and h4F2hc cRNA was injected into the oocytes for hLAT2 expression.
(§7) The control cell was injected with distilled water.
(§8) 3) The oocytes after the injection were cultured in a Barth culture medium containing gentamicin for 2 days, from which healthy oocytes were selected and transferred to a 24-well plate at 8-10 cell/well.
(§9) First, after washing twice with choline 100 (5 mM HEPES, 100 mM choline Cl, 2 mM KCl, 1.8 mM CaCl2, 1 mM MgCl2, pH 7.4) at room temperature, choline 100 containing 10 μM ^14C-Leu and specimens of various concentrations was added for an uptake for 30 minutes. Then, after washing with choline 100 of 4° C. six times, the oocytes were transferred to vials one by one and 250 μL of 10% SDS was added thereto, which was shaken at room temperature for an hour to be dissolved. After an hour, the solution was added with 3 mL of a scintillator to measure the radioactivity using a liquid scintillation counter. Inhibition rate was calculated by the following formula using an average value of 8 to 10 cells. Inhibition rate (%)=100−(radioactivity of the well added with the test compound)/(radioactivity of the well not added with the test compound)×100 […]

human LAT1 (hLAT1) [3] = assay: as above; assay type: cell-based; conditions: IC50 hLAT2 expressing cells / IC50 hLAT1 expressing cells
Experimental: as §1, §2, §3, §4, §5, §6, §7, §8, §9

human LAT2 (hLAT2) = molecular target: T3, human LAT2 (hLAT2) (Homo sapiens, UniProt Q9UHI5); assay: Inhibition of leucine uptake into hLAT2 expressing Xenopus oocytes; assay type: cell-based; conditions: 10 μM 14C-Leu, 30 minutes uptake, oocytes with hLAT2 and h4F2hc cRNA
T3 construct: expressed in transfected cells; host or cells: Xenopus laevis oocytes injected with cRNA
T3 sequence (Q9UHI5 1-535): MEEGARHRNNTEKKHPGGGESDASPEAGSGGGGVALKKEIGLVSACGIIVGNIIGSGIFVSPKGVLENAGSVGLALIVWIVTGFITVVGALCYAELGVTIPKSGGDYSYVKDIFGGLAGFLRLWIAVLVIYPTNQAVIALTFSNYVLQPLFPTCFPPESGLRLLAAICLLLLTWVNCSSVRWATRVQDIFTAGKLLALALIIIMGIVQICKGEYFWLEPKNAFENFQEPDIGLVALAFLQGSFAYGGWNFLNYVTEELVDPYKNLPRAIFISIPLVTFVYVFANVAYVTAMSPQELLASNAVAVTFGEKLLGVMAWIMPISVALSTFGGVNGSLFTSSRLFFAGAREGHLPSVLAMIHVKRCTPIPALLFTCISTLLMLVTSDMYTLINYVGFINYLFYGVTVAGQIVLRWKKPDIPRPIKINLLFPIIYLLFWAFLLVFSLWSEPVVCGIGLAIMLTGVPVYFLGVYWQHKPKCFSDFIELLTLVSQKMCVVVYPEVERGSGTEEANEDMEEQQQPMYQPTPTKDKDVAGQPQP
Experimental: as §1, §2, §3, §4, §5, §6, §7, §8, §9

T2 sequence (Q01650 whole entry): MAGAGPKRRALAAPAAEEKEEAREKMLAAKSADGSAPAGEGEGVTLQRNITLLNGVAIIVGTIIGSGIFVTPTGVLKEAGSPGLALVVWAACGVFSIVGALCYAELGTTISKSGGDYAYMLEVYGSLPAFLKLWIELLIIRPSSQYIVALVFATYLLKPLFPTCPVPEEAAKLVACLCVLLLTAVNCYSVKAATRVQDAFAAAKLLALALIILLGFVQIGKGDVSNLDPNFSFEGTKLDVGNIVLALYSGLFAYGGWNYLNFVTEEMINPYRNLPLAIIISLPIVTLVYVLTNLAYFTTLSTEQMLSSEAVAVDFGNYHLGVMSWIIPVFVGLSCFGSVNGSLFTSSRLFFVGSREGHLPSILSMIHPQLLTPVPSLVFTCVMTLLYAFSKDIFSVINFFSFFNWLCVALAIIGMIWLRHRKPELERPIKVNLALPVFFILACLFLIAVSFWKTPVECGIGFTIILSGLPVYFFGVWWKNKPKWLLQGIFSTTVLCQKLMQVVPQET
T1 sequence (Q01650 whole entry): as above
T1 sequence (P08195 102-630 partner): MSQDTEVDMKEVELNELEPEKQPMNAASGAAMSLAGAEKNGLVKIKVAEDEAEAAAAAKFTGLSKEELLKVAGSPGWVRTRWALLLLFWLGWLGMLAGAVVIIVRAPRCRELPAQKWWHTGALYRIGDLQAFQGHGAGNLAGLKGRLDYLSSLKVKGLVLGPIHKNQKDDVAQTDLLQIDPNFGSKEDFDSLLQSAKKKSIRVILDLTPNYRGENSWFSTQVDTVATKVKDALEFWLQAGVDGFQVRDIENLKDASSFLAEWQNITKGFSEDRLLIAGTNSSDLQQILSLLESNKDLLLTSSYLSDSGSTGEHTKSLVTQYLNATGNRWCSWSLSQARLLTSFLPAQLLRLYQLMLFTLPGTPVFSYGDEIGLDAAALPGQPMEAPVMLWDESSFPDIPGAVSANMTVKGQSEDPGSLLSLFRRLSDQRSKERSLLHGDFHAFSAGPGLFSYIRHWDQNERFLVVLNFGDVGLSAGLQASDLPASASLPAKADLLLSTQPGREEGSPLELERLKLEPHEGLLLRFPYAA

## NC1(C(=O)O)CC2CCC1C2 (centres unmarked) [BCH, 2-aminobicyclo-(2,2,1)-heptane-2-carboxylic acid, reference compound]
LAT1
  pIC50: 4.00
[1]
  LD50: ≥ 300 mg/kg

## COC(=O)[C@@H](N)Cc1cccc(Oc2ccc3ccccc3c2)c1.Cl [Example 49-3), 3-(2-naphthyloxy)-L-phenylalanine methyl ester hydrochloride]
Sarcoma 180 cells
  proliferation inhibiting rate: 41.3%
other
  melting point: 209 to 211 °C (dec.)

## N[C@@H](Cc1cc(Cl)c(OCCc2coc(-c3ccccc3)n2)c(Cl)c1)C(=O)O [Example 9]
Human LAT1 (hLAT1) [2]
  pIC50: 6.15
Human LAT1 (hLAT1) [3]
  Selectivity (L2/L1): 100 times
Human LAT2 (hLAT2)
  pIC50: 4.16
other
  melting point: 198 to 205 °C

## N[C@@H](Cc1cccc(Oc2ccc(Oc3ccc(O)cc3)cc2)c1)C(=O)O [Example 57, 3-[4-(4-hydroxyphenoxy)phenoxy]-L-phenylalanine]
Human LAT1 (hLAT1) [3]
  Selectivity (L2/L1): 0.02 times
Human LAT2 (hLAT2)
  pIC50: 6.70
other
  melting point: 234 to 237 °C (dec.)

## N[C@@H](Cc1cc(Cl)c(OCCc2coc(-c3ccc4ccccc4c3)n2)c(Cl)c1)C(=O)O [Example 17]
Human LAT1 (hLAT1) [2]
  pIC50: > 6.00
Human LAT1 (hLAT1) [3]
  Selectivity (L2/L1): ≥ 100 times
Human LAT2 (hLAT2)
  pIC50: < 4.00
other
  melting point: 232 to 233 °C (dec.)

## N[C@@H](Cc1cc(Cl)c(OCc2cccc3nc(-c4ccccc4)oc23)c(Cl)c1)C(=O)O [Example 6-2), 3,5-dichloro-O-[(2-phenyl)-benzoxazol-7-yl]methyl-L-tyrosine]
LAT1
  pIC50: 6.52
Human LAT1 (hLAT1) [2]
  pIC50: 7.00
Human LAT1 (hLAT1) [3]
  Selectivity (L2/L1): 1000 times
other
  melting point: 233 to 238 °C (dec.)

## N[C@@H](Cc1cc(Cl)c(OCCc2csc(-c3ccccc3)n2)c(Cl)c1)C(=O)O [Example 15]
Human LAT1 (hLAT1) [2]
  pIC50: > 6.00
Human LAT1 (hLAT1) [3]
  Selectivity (L2/L1): ≥ 100 times
Human LAT2 (hLAT2)
  pIC50: < 4.00
other
  melting point: 205 to 210 °C (dec.)

## COC(=O)[C@@H](N)Cc1cc(Cl)c(OCc2cccc3nc(-c4ccccc4)oc23)c(Cl)c1.Cl [Example 6-3), 3,5-Dichloro-O-[(2-phenyl)-benzoxazol-7-yl]methyl-L-tyrosine methyl ester hydrochloride]
Sarcoma 180 cells
  proliferation inhibiting rate: 52.2%
other
  melting point: 225 to 225.5 °C (dec.)

## N[C@@H](Cc1cc(Cl)c(OCCc2cccc3nc(-c4ccccc4)oc23)c(Cl)c1)C(=O)O [Example 23]
Human LAT1 (hLAT1) [2]
  pIC50: > 6.00
Human LAT1 (hLAT1) [3]
  Selectivity (L2/L1): ≥ 100 times
Human LAT2 (hLAT2)
  pIC50: < 4.00
other
  melting point: 205 to 215 °C (dec.)

## N[C@@H](Cc1cccc(OCCc2ccc3ccccc3c2)c1)C(=O)O [Example 59, 3-[2-(2-naphthyl)ethoxy]-L-phenylalanine]
Human LAT1 (hLAT1) [3]
  Selectivity (L2/L1): ≤ 0.1 times
Human LAT2 (hLAT2)
  pIC50: > 6.00
other
  melting point: 210 to 214 °C (dec.)

## N[C@@H](Cc1cccc(OCCc2ccc3c(c2)CCCC3)c1)C(=O)O [Example 60, 3-[2-[2-(5,6,7,8-tetrahydro-naphthyl)]ethoxy]-L-phenylalanine]
Human LAT1 (hLAT1) [3]
  Selectivity (L2/L1): ≤ 0.1 times
Human LAT2 (hLAT2)
  pIC50: > 6.00
other
  melting point: 198 to 202 °C (dec.)

Source: patent publication US7345068B2, “Aromatic amino acid derivatives and medicinal compositions” (priority 2002, dated 2008)
